Earlier results, collected in patent US12427145B2, “Controlled release pharmaceutical composition of Selexipag or it's active metabolite” (Innovate Therapeutics LLC, priority 2019, dated 2025).
Read-outs that look alike come from different tables or passages of the source.

Tests used:
[1] = fasting condition
[2] = study AC-065A303, 52 subjects out of 218 subjects
[3] = oral immediate release dosage form, out of 575 subjects

- subjects reporting Headache ([1]; 200 μg Selexipag, 1 out of 6 subjects): 17%
- subjects reporting Headache ([1]; 600 μg Selexipag, 2 out of 6 subjects): 33%
- subjects reporting Headache ([1]; 800 μg Selexipag, 5 out of 6 subjects): 83%
- Arthralgia, subjects [3]: 11%
- Diarrhea, subjects [3]: 42%
- Flushing, subjects [3]: 12%
- Headache, subjects [3]: 65%
- Jaw pain, subjects [3]: 26%
- Myalgia, subjects [3]: 16%
- Nausea, subjects [3]: 33%
- Pain in Extremity, subjects [3]: 17%
- Rash, subjects [3]: 11%
- Vomiting, subjects [3]: 18%
SMILES: CC(C)N(CCCCOCC(=O)NS(C)(=O)=O)c1cnc(-c2ccccc2)c(-c2ccccc2)n1 [Selexipag]
- subjects with at least 1 adverse event leading to discontinuation of study drug [2]: 24%
